Experimental data from paper PMC12298351, “Novel 3,19-(N-Phenyl-3-(4-fluorophenyl)-pyrazole) Acetal of Andrographolide Promotes Cell Cycle Arrest and Apoptosis in MDA-MB-231 Breast Cancer Cells” (Pharmaceuticals, 2025).

How the values were obtained:
HCC-2998 = settings: HCC-2998, Colon
KM12 = settings: KM12, Colon
SNB-75 = settings: SNB-75, CNS
MDA-MB-468 = settings: MDA-MB-468, Breast
SF-539 = settings: SF-539, CNS
TK-10 = format: cell-based; settings: TK-10, Renal
SK-MEL-28 = settings: SK-MEL-28, Melanoma
UACC-257 = settings: UACC-257, Melanoma
A498 = settings: A498, Renal
CAKI-1 = settings: CAKI-1, Renal
HCT-116 = format: cell-based; settings: HCT-116, Colon
U251 = settings: U251, CNS
PC-3 = settings: PC-3, Prostate
OVCAR-3 = settings: OVCAR-3, Ovarian
MOLT-4 = settings: MOLT-4, Leukemia
HCT-15 = settings: HCT-15, Colon
IGROV1 = settings: IGROV1, Ovarian
SF-268 = settings: SF-268, CNS
[1] = read-out: 50% lethal concentration (LC50)
[2] = read-out: 50% lethal concentration (LC50), Leukemia
[3] = read-out: 50% lethal concentration (LC50), Melanoma
[4] = read-out: 50% lethal concentration (LC50), Breast

How did the GI50 (HCC-2998) turn out when `C=C1CCC2C3(C)COC(c4cn(-c5ccccc5)nc4-c4cccc([N+](=O)[O-])c4)OC3CCC2(C)C1CC=C1C(=O)OCC1O` (stereo not drawn) [1b] was run?
The GI50 was 1.92 µM.

And the Total growth inhibition (TGI) (HCC-2998)?
The Total growth inhibition (TGI) was 3.53 µM.

What about the CC50 (HCC-2998; [1]) of the same compound?
The CC50 was 6.48 µM.

And the Total growth inhibition (TGI) (NCI-H460; NCI-H460, Non-Small Cell Lung)?
Its Total growth inhibition (TGI) is 4.8 µM.

And the GI50 (NCI-H460; NCI-H460, Non-Small-Cell Lung)?
Its GI50 is 2.27 µM.

What about the CC50 (NCI-H460; read-out: 50% lethal concentration (LC50), NCI-H460, Non-Small Cell Lung) of the same compound?
Its CC50 is 11.3 µM.

What about the GI50 (KM12) of the same compound?
The GI50 was 1.99 µM.

What about the Total growth inhibition (TGI) (KM12) of the same compound?
Its Total growth inhibition (TGI) is 4.38 µM.

And the GI50 (SNB-75)?
The GI50 was 7.34 µM.

What about the Total growth inhibition (TGI) (SNB-75) of the same compound?
Its Total growth inhibition (TGI) is 50 µM.

And the CC50 (SNB-75; [1])?
Its CC50 is greater than 100 µM.

What about the GI50 (MDA-MB-468) of the same compound?
The GI50 was 1.76 µM.

What about the Total growth inhibition (TGI) (MDA-MB-468) of the same compound?
Its Total growth inhibition (TGI) is 3.52 µM.

What about the CC50 (MDA-MB-468; [1]) of the same compound?
The CC50 was 7 µM.

What about the GI50 (HL-60(TB); Leukemia) of the same compound?
The GI50 was 1.73 µM.

And the Total growth inhibition (TGI) (HL-60(TB); Leukemia)?
The Total growth inhibition (TGI) was greater than 100 µM.

What about the CC50 (HL-60(TB); [2]) of the same compound?
Its CC50 is greater than 100 µM.

What about the Total growth inhibition (TGI) (HOP-92; HOP-92, Non-Small Cell Lung) of the same compound?
The Total growth inhibition (TGI) was 3.64 µM.

And the GI50 (HOP-92; HOP-92, Non-Small-Cell Lung)?
The GI50 was 1.86 µM.

What about the CC50 (HOP-92; read-out: 50% lethal concentration (LC50), HOP-92, Non-Small Cell Lung) of the same compound?
Its CC50 is 7.11 µM.

What about the GI50 (LOX IMVI; Melanoma) of the same compound?
Its GI50 is 1.72 µM.

What about the Total growth inhibition (TGI) (LOX IMVI; Melanoma) of the same compound?
Its Total growth inhibition (TGI) is 3.34 µM.

What about the CC50 (LOX IMVI; [3]) of the same compound?
The CC50 was 6.48 µM.

And the GI50 (SF-539)?
The GI50 was 1.74 µM.

And the Total growth inhibition (TGI) (SF-539)?
The Total growth inhibition (TGI) was 3.18 µM.

What about the CC50 (SF-539; [1]) of the same compound?
The CC50 was 5.79 µM.

And the GI50 (TK-10)?
The GI50 was 2.22 µM.

What about the Total growth inhibition (TGI) (TK-10) of the same compound?
The Total growth inhibition (TGI) was 5.82 µM.

And the CC50 (TK-10; [1])?
The CC50 was greater than 100 µM.

What about the GI50 (SK-MEL-28) of the same compound?
The GI50 was 2.04 µM.

And the Total growth inhibition (TGI) (SK-MEL-28)?
The Total growth inhibition (TGI) was 4.06 µM.

What about the CC50 (SK-MEL-28; [1]) of the same compound?
Its CC50 is 8.11 µM.

What about the GI50 (UACC-257) of the same compound?
The GI50 was 1.8 µM.

What about the Total growth inhibition (TGI) (UACC-257) of the same compound?
The Total growth inhibition (TGI) was 3.68 µM.

What about the CC50 (UACC-257; [1]) of the same compound?
Its CC50 is 7.53 µM.

And the GI50 (ACHN; Renal)?
The GI50 was 1.89 µM.

And the Total growth inhibition (TGI) (ACHN; Renal)?
Its Total growth inhibition (TGI) is 3.62 µM.

What about the CC50 (ACHN; read-out: 50% lethal concentration (LC50), Renal) of the same compound?
The CC50 was 6.94 µM.

And the GI50 (HS 578T; Breast)?
Its GI50 is 2.69 µM.

And the CC50 (HS 578T; [4])?
The CC50 was greater than 100 µM.

What about the GI50 (A498) of the same compound?
Its GI50 is 1.9 µM.

And the Total growth inhibition (TGI) (A498)?
Its Total growth inhibition (TGI) is 45.4 µM.

What about the CC50 (A498; [1]) of the same compound?
The CC50 was greater than 100 µM.

What about the GI50 (CAKI-1) of the same compound?
Its GI50 is 2.81 µM.

What about the Total growth inhibition (TGI) (CAKI-1) of the same compound?
The Total growth inhibition (TGI) was greater than 100 µM.

And the CC50 (CAKI-1; [1])?
Its CC50 is greater than 100 µM.

And the GI50 (SR; Leukemia)?
Its GI50 is 3.46 µM.

What about the Total growth inhibition (TGI) (SR; Leukemia) of the same compound?
Its Total growth inhibition (TGI) is greater than 100 µM.

What about the CC50 (SR; [2]) of the same compound?
The CC50 was greater than 100 µM.

And the Total growth inhibition (TGI) (NCI-H522; NCI-H522, Non-Small Cell Lung)?
The Total growth inhibition (TGI) was 3.41 µM.

What about the GI50 (NCI-H522; NCI-H522, Non-Small-Cell Lung) of the same compound?
The GI50 was 1.75 µM.

What about the CC50 (NCI-H522; read-out: 50% lethal concentration (LC50), NCI-H522, Non-Small Cell Lung) of the same compound?
Its CC50 is 6.65 µM.

And the GI50 (HCT-116)?
The GI50 was 1.99 µM.

And the Total growth inhibition (TGI) (HCT-116)?
Its Total growth inhibition (TGI) is 4.25 µM.

What about the GI50 (U251) of the same compound?
Its GI50 is 1.74 µM.

And the Total growth inhibition (TGI) (U251)?
The Total growth inhibition (TGI) was 3.35 µM.

What about the CC50 (U251; [1]) of the same compound?
The CC50 was 6.46 µM.

What about the GI50 (MDA-MB-231; MDA-MB-231, Breast) of the same compound?
Its GI50 is 1.84 µM.

What about the Total growth inhibition (TGI) (MDA-MB-231; MDA-MB-231/ATCC, Breast) of the same compound?
The Total growth inhibition (TGI) was 3.44 µM.

And the CC50 (MDA-MB-231; read-out: 50% lethal concentration (LC50), MDA-MB-231/ATCC, Breast)?
The CC50 was 6.44 µM.

And the GI50 (PC-3)?
Its GI50 is 2.75 µM.

What about the Total growth inhibition (TGI) (PC-3) of the same compound?
Its Total growth inhibition (TGI) is 9.04 µM.

What about the CC50 (PC-3; [1]) of the same compound?
The CC50 was greater than 100 µM.

And the GI50 (OVCAR-3)?
Its GI50 is 1.87 µM.

And the Total growth inhibition (TGI) (OVCAR-3)?
Its Total growth inhibition (TGI) is 3.75 µM.

And the CC50 (OVCAR-3; [1])?
The CC50 was 7.55 µM.

And the GI50 (T-47D; Breast)?
The GI50 was 1.76 µM.

What about the Total growth inhibition (TGI) (T-47D; Breast) of the same compound?
Its Total growth inhibition (TGI) is 5.02 µM.

And the CC50 (T-47D; [4])?
The CC50 was greater than 100 µM.

What about the GI50 (MOLT-4) of the same compound?
Its GI50 is 2.87 µM.

What about the Total growth inhibition (TGI) (MOLT-4) of the same compound?
Its Total growth inhibition (TGI) is greater than 100 µM.

And the CC50 (MOLT-4; [1])?
The CC50 was greater than 100 µM.

And the GI50 (MALME-3M; Melanoma)?
Its GI50 is 1.78 µM.

What about the Total growth inhibition (TGI) (MALME-3M; Melanoma) of the same compound?
The Total growth inhibition (TGI) was 3.55 µM.

What about the CC50 (MALME-3M; [3]) of the same compound?
Its CC50 is 7.05 µM.

What about the Total growth inhibition (TGI) (HOP-62; HOP-62, Non-Small Cell Lung) of the same compound?
The Total growth inhibition (TGI) was 12.4 µM.

And the GI50 (HOP-62; HOP-62, Non-Small-Cell Lung)?
Its GI50 is 3.15 µM.

And the CC50 (HOP-62; read-out: 50% lethal concentration (LC50), HOP-62, Non-Small Cell Lung)?
Its CC50 is greater than 100 µM.

And the GI50 (HCT-15)?
Its GI50 is 1.74 µM.

What about the Total growth inhibition (TGI) (HCT-15) of the same compound?
The Total growth inhibition (TGI) was 3.58 µM.

And the CC50 (HCT-15; [1])?
Its CC50 is 7.37 µM.

And the Total growth inhibition (TGI) (EKVX; Non-Small Cell Lung)?
Its Total growth inhibition (TGI) is 7.98 µM.

What about the GI50 (EKVX; Non-Small-Cell Lung) of the same compound?
Its GI50 is 2.75 µM.

And the CC50 (EKVX; read-out: 50% lethal concentration (LC50), Non-Small Cell Lung)?
Its CC50 is greater than 100 µM.

And the GI50 (IGROV1)?
Its GI50 is 2.08 µM.

And the Total growth inhibition (TGI) (IGROV1)?
Its Total growth inhibition (TGI) is 4.27 µM.

What about the CC50 (IGROV1; [1]) of the same compound?
The CC50 was 8.76 µM.

And the GI50 (SF-268)?
Its GI50 is 7.65 µM.

And the Total growth inhibition (TGI) (SF-268)?
The Total growth inhibition (TGI) was greater than 100 µM.

And the CC50 (SF-268; [1])?
Its CC50 is greater than 100 µM.
